The source of these data is patent US8426408B2, “Pyrimidine inhibitors of kinases” (AbbVie Inc., priority 2009, dated 2013).

The IC50 is the midpoint of a concentration-inhibition curve. One may read the Ki as the equilibrium dissociation constant of an inhibitor or competing ligand from its target. Higher therefore signals lower affinity.

Experiment [1] concerns the target KDR (Homo sapiens, UniProt P35968). The experiment in a line: KDR cellular assay (KDR receptor phosphorylation ELISA). As to conditions: KDR transfected 3T3 (embryonic mouse) cells, VEGF stimulated; read-out: IC50 inhibition of KDR phosphorylation. The format is cell-based. Further details: expressed in transfected cells; host or cells: 3T3 (embryonic mouse) cells. An outline of the steps:
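Phospho-KDR measured by capture ELISA (anti-KDR coat, biotinylated detection, streptavidin-HRP, 450 nm) in lysates of KDR-expressing 3T3 mouse fibroblasts. Cells saw compound 20 min at 37° C before 10 min VEGF challenge (100 ng/ml solution); IC50 from non-linear regression of half-log dose series.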
(In general: In an ELISA, binding on a coated surface is turned into a signal by an enzyme label.)

The target in experiment [2] is T1, Aurora B (Homo sapiens, UniProt Q96GD4).
T1 construct: Active Aurora B enzyme (recombinant residues 1-344)
The experiment in a line: Aurora B enzyme inhibition (time-resolved fluorescence, histone H3 peptide). The format is biochemical. As to conditions: 1 mM ATP. An outline of the steps:
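IC50s came from an exponential fit of inhibition against inhibitor concentration, with phosphorylation read as the 665/615 nm time-resolved fluorescence ratio after EDTA stop using Eu-anti-phospho-H3 and SA-APC. The 1 h reaction used Aurora B 1-344 plus GST-INCENP, biotin-histone H3 1-21 peptide and 1 mM ATP in pH 7.4 HEPES buffer.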

Experiment [3] concerns the target T2, Aurora A (Homo sapiens, UniProt O14965).
T2 sequence (O14965 1-403): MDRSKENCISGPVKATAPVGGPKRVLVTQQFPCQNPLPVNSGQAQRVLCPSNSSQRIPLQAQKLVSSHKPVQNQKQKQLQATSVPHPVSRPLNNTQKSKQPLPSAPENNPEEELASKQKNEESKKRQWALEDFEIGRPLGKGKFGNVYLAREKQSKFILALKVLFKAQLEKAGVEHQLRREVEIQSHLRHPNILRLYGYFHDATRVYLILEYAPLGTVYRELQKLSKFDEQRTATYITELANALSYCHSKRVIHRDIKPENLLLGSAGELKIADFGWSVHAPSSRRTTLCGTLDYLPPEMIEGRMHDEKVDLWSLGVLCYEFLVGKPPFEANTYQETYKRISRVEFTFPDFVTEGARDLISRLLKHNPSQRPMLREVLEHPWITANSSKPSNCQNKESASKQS
The experiment in a line: Aurora A enzyme inhibition (time-resolved fluorescence, STK substrate-2). The conditions noted are these: 1 mM ATP. The format is biochemical. An outline of the steps: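 Phosphorylation of biotinylated STK substrate-2 at 1 mM ATP, 1 h, Hepes buffer pH 7.4 (MgCl2, sodium orthovanadate, Triton X-100). After EDTA quench, 665/615 nm time-resolved fluorescence ratio read via europium anti-phospho antibody and SA-XL665; IC50 from exponential fit versus inhibitor concentration.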

A value given as a limit tells only on which side of the number the result lay.

T1 sequence (Q96GD4 whole entry, the tested form may be a part): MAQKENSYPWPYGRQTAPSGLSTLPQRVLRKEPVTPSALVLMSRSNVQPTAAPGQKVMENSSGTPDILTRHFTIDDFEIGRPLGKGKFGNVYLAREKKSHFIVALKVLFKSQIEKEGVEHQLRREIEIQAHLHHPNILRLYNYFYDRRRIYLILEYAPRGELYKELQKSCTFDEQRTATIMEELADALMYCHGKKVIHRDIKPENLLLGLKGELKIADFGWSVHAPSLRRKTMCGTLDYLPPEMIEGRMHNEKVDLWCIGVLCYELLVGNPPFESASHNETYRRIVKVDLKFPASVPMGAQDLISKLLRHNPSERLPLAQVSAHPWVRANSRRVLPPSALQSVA
T1 sequence (Q9NQS7 826-918 partner limits assumed): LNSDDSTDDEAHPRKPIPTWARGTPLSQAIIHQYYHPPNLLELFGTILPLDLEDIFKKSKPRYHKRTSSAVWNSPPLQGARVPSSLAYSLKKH
Chain of KDR (P35968 20-1356): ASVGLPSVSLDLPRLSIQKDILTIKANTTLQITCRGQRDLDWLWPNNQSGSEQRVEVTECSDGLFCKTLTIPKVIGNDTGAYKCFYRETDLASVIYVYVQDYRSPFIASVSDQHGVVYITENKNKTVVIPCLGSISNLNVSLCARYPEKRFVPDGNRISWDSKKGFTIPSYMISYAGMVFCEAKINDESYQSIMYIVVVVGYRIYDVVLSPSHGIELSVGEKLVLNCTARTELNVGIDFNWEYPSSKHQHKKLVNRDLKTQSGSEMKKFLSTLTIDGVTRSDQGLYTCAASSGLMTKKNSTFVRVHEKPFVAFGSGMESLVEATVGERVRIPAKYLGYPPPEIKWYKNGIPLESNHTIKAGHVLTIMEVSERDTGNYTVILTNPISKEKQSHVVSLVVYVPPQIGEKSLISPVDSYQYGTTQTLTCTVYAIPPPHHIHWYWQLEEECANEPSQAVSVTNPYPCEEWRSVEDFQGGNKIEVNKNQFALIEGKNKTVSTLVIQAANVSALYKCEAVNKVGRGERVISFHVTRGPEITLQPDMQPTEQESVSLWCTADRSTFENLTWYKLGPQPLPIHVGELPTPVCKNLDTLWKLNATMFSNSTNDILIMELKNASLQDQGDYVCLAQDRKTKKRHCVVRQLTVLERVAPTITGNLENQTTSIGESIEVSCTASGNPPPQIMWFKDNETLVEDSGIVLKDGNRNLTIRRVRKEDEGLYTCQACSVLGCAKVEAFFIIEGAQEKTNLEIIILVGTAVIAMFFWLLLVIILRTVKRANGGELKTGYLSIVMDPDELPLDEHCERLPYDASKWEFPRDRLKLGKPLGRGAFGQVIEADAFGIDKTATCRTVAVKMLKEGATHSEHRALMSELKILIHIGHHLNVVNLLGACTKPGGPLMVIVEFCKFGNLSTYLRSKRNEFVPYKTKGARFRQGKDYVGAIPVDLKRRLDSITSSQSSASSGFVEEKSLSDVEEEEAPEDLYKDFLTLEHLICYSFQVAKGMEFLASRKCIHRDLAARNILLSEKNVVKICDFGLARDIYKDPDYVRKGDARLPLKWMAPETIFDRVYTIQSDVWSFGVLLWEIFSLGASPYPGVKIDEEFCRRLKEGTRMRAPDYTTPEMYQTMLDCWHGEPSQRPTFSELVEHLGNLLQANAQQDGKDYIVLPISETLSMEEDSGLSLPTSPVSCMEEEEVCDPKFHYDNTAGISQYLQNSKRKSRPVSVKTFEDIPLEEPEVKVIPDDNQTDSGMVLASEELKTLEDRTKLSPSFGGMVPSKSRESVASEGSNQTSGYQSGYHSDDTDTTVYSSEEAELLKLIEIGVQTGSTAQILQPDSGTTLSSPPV

Consider `COc1cccc(CCn2cc(Nc3ncc(Br)c(N[C@H]4[C@@H](C(N)=O)[C@@H]5C=C[C@H]4C5)n3)cn2)c1` [Example 160, (1S,2S,3R,4R)-3-{[5-bromo-2-({1-[2-(3-methoxyphenyl)ethyl]-1H-pyrazol-4-yl}amino)pyrimidin-4-yl]amino}bicyclo[2.2.1]hept-5-ene-2-carboxamide], for which, in experiment [1], the IC50 was less than 100 nM. Further, the Ki in experiment [2] and in experiment [3] was less than 100 nM in each case.

In the case of `CC(C)NC(=O)C1CCCC1Nc1nc(Nc2cnn(C3CCNCC3)c2)ncc1Cl` (racemic) [Example 163, (1S,2R)-2-[(5-chloro-2-{[1-(piperidin-4-yl)-1H-pyrazol-4-yl]amino}pyrimidin-4-yl)amino]-N-isopropylcyclopentanecarboxamide and (1R,2S)-2-[(5-chloro-2-{[1-(piperidin-4-yl)-1H-pyrazol-4-yl]amino}pyrimidin-4-yl)amino]-N-isopropylcyclopentanecarboxamide], the IC50 in experiment [1] is 100 to 1000 nM. Moreover, the Ki in experiment [2] and in experiment [3] was less than 100 nM throughout.

With `NC(=O)[C@@H]1[C@H](Nc2nc(Nc3cnn(CC4CCO4)c3)ncc2Cl)[C@H]2C=C[C@@H]1C2` (stereo partly drawn) [Example 129, (1S,2S,3R,4R)-3-[(5-chloro-2-{[1-(oxetan-2-ylmethyl)-1H-pyrazol-4-yl]amino}pyrimidin-4-yl)amino]bicyclo[2.2.1]hept-5-ene-2-carboxamide], the IC50 in experiment [1] was less than 100 nM. Moreover, the Ki in experiment [2] and in experiment [3] was less than 100 nM in each case.

`NC(=O)[C@@H]1[C@H](Nc2nc(Nc3cnn([C@@H]4CCOC4)c3)ncc2Br)[C@H]2C=C[C@@H]1C2` [Example 116, (1S,2S,3R,4R)-3-{[5-bromo-2-({1-[(3R)-tetrahydrofuran-3-yl]-1H-pyrazol-4-yl}amino)pyrimidin-4-yl]amino}bicyclo[2.2.1]hept-5-ene-2-carboxamide]: the IC50 in experiment [1] is less than 100 nM. In addition, the Ki in experiment [2] and in experiment [3] was less than 100 nM in each case.

With `NC(=O)[C@@H]1CCC[C@@H]1Nc1nc(Nc2cnn(C3CCNCC3)c2)ncc1Cl.NC(=O)[C@H]1CCC[C@H]1Nc1nc(Nc2cnn(C3CCNCC3)c2)ncc1Cl` (mixture of isomers) [Example 136, (1S,2R)-2-[(5-chloro-2-{[1-(piperidin-4-yl)-1H-pyrazol-4-yl]amino}pyrimidin-4-yl)amino]cyclopentanecarboxamide and (1R,2S)-2-[(5-chloro-2-{[1-(piperidin-4-yl)-1H-pyrazol-4-yl]amino}pyrimidin-4-yl)amino]cyclopentanecarboxamide], in experiment [1], the IC50 fell in the range of 100 to 1000 nM. The inhibition constant Ki in experiment [2] and in experiment [3] was less than 100 nM in each case.

With `NC(=O)[C@@H]1[C@H](Nc2nc(Nc3cnn(Cc4ccccc4)c3)ncc2Br)[C@H]2C=C[C@@H]1C2` [Example 149, (1S,2S,3R,4R)-3-({2-[(1-benzyl-1H-pyrazol-4-yl)amino]-5-bromopyrimidin-4-yl}amino)bicyclo[2.2.1]hept-5-ene-2-carboxamide], the IC50 in experiment [1] is less than 100 nM. The Ki in experiment [2] and in experiment [3] was less than 100 nM each time.

On to `Cc1nn(C)cc1Nc1ncc(Br)c(N[C@H]2[C@@H](C(N)=O)[C@@H]3C=C[C@H]2C3)n1` [Example 135, (1S,2S,3R,4R)-3-({5-bromo-2-[(1,3-dimethyl-1H-pyrazol-4-yl)amino]pyrimidin-4-yl}amino)bicyclo[2.2.1]hept-5-ene-2-carboxamide], for which the IC50 in experiment [1] was less than 100 nM. Also, the Ki in experiment [2] and in experiment [3] was less than 100 nM throughout.

Regarding `NC(=O)[C@@H]1[C@H](Nc2nc(Nc3cnn([C@H]4CCOC4)c3)ncc2Br)[C@H]2C=C[C@@H]1C2` [Example 117, (1S,2S,3R,4R)-3-{[5-bromo-2-({1-[(3S)-tetrahydrofuran-3-yl]-1H-pyrazol-4-yl}amino)pyrimidin-4-yl]amino}bicyclo[2.2.1]hept-5-ene-2-carboxamide], in experiment [1], the IC50 was less than 100 nM. Also, the Ki in experiment [2] and in experiment [3] was less than 100 nM each time.

Turning to `Cn1cc(Nc2ncc(C(F)(F)F)c(N[C@H]3[C@@H](C(N)=O)C[C@H]4C[C@@H]3C4(C)C)n2)cn1` [Example 167, (1R,2R,3S,5R)-6,6-dimethyl-2-({2-[(1-methyl-1H-pyrazol-4-yl)amino]-5-(trifluoromethyl)pyrimidin-4-yl}amino)bicyclo[3.1.1]heptane-3-carboxamide], the IC50 in experiment [1] fell in the range of 100 to 1000 nM. The Ki in experiment [2] and in experiment [3] was less than 100 nM in each case.

In the case of `CNC(=O)Cn1cc(Nc2ncc(Cl)c(N[C@@H]3[C@H]4CC[C@H](C4)[C@@H]3C(N)=O)n2)cn1` [Example 88, (1R,2S,3R,4S)-3-{[5-chloro-2-({1-[2-(methylamino)-2-oxoethyl]-1H-pyrazol-4-yl}amino)pyrimidin-4-yl]amino}bicyclo[2.2.1]heptane-2-carboxamide], the IC50 in experiment [1] lay within 100 to 1000 nM. Also, the Ki in experiment [2] and in experiment [3] was less than 100 nM throughout.

On to `NC(=O)[C@@H]1[C@H](Nc2nc(Nc3cnn(C[C@H](O)CO)c3)ncc2Cl)[C@H]2C=C[C@@H]1C2` [Example 124, (1S,2S,3R,4R)-3-{[5-chloro-2-({1-[(2S)-2,3-dihydroxypropyl]-1H-pyrazol-4-yl}amino)pyrimidin-4-yl]amino}bicyclo[2.2.1]hept-5-ene-2-carboxamide], for which the IC50 in experiment [1] is 100 to 1000 nM. Besides, the Ki in experiment [2] and in experiment [3] was less than 100 nM each time.

In the case of `CN1CCN(CCn2cc(Nc3ncc(Cl)c(N[C@@H]4[C@H]5CC[C@H](C5)[C@@H]4C(N)=O)n3)cn2)CC1` [Example 90, (1R,2S,3R,4S)-3-{[5-chloro-2-({1-[2-(4-methylpiperazin-1-yl)ethyl]-1H-pyrazol-4-yl}amino)pyrimidin-4-yl]amino}bicyclo[2.2.1]heptane-2-carboxamide], the IC50 in experiment [1] is less than 100 nM. Also, the Ki in experiment [2] and in experiment [3] was less than 100 nM throughout.

As to `NC(=O)[C@@H]1[C@H](Nc2nc(Nc3cnn(C[C@H]4CCCN4)c3)ncc2Cl)[C@H]2C=C[C@@H]1C2` [Example 102, (1S,2S,3R,4R)-3-{[5-chloro-2-({1-[(2R)-pyrrolidin-2-ylmethyl]-1H-pyrazol-4-yl}amino)pyrimidin-4-yl]amino}bicyclo[2.2.1]hept-5-ene-2-carboxamide], the IC50 in experiment [1] is less than 100 nM. The Ki in experiment [2] and in experiment [3] was less than 100 nM throughout.

As to `NC(=O)[C@@H]1[C@H](Nc2nc(Nc3cnn(-c4ccccc4)c3)ncc2Br)[C@H]2C=C[C@@H]1C2` [Example 173, (1S,2S,3R,4R)-3-({5-bromo-2-[(1-phenyl-1H-pyrazol-4-yl)amino]pyrimidin-4-yl}amino)bicyclo[2.2.1]hept-5-ene-2-carboxamide], the IC50 in experiment [1] is less than 100 nM. In addition, the Ki in experiment [2] and in experiment [3] was less than 100 nM in each case.

Turning to `Cn1cc(Nc2ncc(C(F)(F)F)c(Nc3ccsc3C(N)=O)n2)cn1` [Example 150, 3-({2-[(1-methyl-1H-pyrazol-4-yl)amino]-5-(trifluoromethyl)pyrimidin-4-yl}amino)thiophene-2-carboxamide], the IC50 in experiment [1] lay in the range of 100 to 1000 nM. Moreover, the Ki in experiment [2] and in experiment [3] was less than 100 nM in each case.

In the case of `COc1cccc(Cn2cc(Nc3ncc(Br)c(N[C@H]4[C@@H](C(N)=O)[C@@H]5C=C[C@H]4C5)n3)cn2)c1` [Example 159, (1S,2S,3R,4R)-3-[(5-bromo-2-{[1-(3-methoxybenzyl)-1H-pyrazol-4-yl]amino}pyrimidin-4-yl)amino]bicyclo[2.2.1]hept-5-ene-2-carboxamide], the IC50 in experiment [1] is less than 100 nM. Moreover, the Ki in experiment [2] and in experiment [3] was less than 100 nM each time.

Consider `Cn1cc(Nc2ncc(Br)c(Nc3ccccc3C3(O)CCC3)n2)cn1` [Example 132, 1-[2-({5-bromo-2-[(1-methyl-1H-pyrazol-4-yl)amino]pyrimidin-4-yl}amino)phenyl]cyclobutanol], for which the IC50 in experiment [1] was in the range of 100 to 1000 nM. Moreover, the Ki in experiment [2] and in experiment [3] was less than 100 nM throughout.

For the molecule `CS(=O)(=O)CCn1cc(Nc2ncc(Br)c(N[C@H]3[C@@H](C(N)=O)[C@@H]4C=C[C@H]3C4)n2)cn1` [Example 122, (1S,2S,3R,4R)-3-{[5-bromo-2-({1-[2-(methylsulfonyl)ethyl]-1H-pyrazol-4-yl}amino)pyrimidin-4-yl]amino}bicyclo[2.2.1]hept-5-ene-2-carboxamide], the IC50 in experiment [1] is less than 100 nM. The Ki in experiment [2] and in experiment [3] was less than 100 nM throughout.
